# Patent publication US10752587B2, “Homobispiperidinyl derivatives as liver X receptor beta agonists, compositions and their use” (Merck Sharp & Dohme Corp., priority 2015, dated 2020)
# pEC50: −log10 of the molar value. Like-named read-outs stand apart in the source and are kept apart here.
# Assays:
# [1] = molecular target: T1, glutathione-S-transferase (GST) tagged LXRbeta LBD (ligand binding domain) (Homo sapiens, UniProt P55055); experiment: LanthaScreen TR-FRET Liver X Receptor Coactivator Assay, co-activator recruitment to LXRbeta LBD; type: biochemical; conditions: for Emax: read-out: LXR beta Activity @ max dose (%); for pEC50 / EC50: potency (Inflection Point, IP), co-activator recruitment to LXRbeta LBD, in relation to T0901317; for pEC50: read-out: LXR beta IP; for EC50: LXR beta IP (nM)
# T1 construct: purchased Invitrogen pv4658.pps
# T1 sequence (P55055 222-460 limits assumed): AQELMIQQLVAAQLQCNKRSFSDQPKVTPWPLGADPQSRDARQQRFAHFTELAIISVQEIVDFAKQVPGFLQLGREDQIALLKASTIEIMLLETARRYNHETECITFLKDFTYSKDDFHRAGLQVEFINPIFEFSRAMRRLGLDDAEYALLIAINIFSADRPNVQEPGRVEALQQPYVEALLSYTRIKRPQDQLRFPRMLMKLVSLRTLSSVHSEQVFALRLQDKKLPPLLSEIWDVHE
# Outline: (§1)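 GST-tagged LBD added to test compound, then fluorescein-labelled coactivator peptide plus terbium anti-GST antibody; incubated at room temperature, TR-FRET read. Potency given as inflection point and efficacy as Emax relative to reference dual agonist T0901317.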
# [2] = molecular target: T2, glutathione-S-transferase (GST) tagged LXRalpha LBD (ligand binding domain) (Homo sapiens, UniProt Q13133); experiment: LanthaScreen TR-FRET Liver X Receptor Coactivator Assay, co-activator recruitment to LXRalpha LBD; type: biochemical; conditions: for Emax: read-out: LXR alpha Activity @ max dose (%); for pEC50: read-out: LXR alpha IP
# T2 construct: purchased Invitrogen pv4655
# T2 sequence (Q13133 209-447 limits assumed): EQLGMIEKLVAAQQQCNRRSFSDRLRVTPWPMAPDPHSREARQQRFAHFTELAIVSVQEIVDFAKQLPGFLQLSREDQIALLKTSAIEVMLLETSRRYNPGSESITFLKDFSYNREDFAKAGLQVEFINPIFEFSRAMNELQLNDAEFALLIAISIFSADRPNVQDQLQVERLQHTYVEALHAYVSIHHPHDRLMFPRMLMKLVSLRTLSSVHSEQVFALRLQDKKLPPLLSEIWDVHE
# Outline: as §1
# [3] = efficacy at max dose, in relation to reference dual agonist T0901317
# [4] = potency (Inflection Point, IP), co-activator recruitment to LXRalpha LBD, in relation to T0901317
SMILES,"Emax [1, 3] [%]",pEC50 [1],"Emax [2, 3] [%]","LXR alpha IP (nM) [2, 4]","pEC50 [2, 4]",EC50 [1] [nM],Emax [1] [%],Emax [2] [%],"EC50 ([2]; LXR alpha IP (nM), potency (Inflection Point, IP), co-activator recruitment to LXRalpha LBD, in relation to T0901317) [nM]","LXR beta Activity @ max dose (%) [1, 3] [%]"
"CNC(=O)c1ccc(N2CCC(CC3CCN(C(=O)[C@](O)(c4cc(Cl)cc(OC)c4)C(F)(F)F)CC3)CC2)cc1Cl [Example 7-117, 2-chloro-4-[4-({1-[(2R)-2-(3-chloro-5-methoxyphenyl)-3,3,3-trifuoro-2-hydroxypropanoyl]piperidin-4-yl}methyl)piperidin-1-yl]-N-methylbenzamide]",35,7.60,0,NO IP,–,–,–,–,–,–
"Cc1cc(F)cc(C(O)(C(=O)N2CCC(CC3CCN(c4ccc(C(=O)N(C)C)c(Cl)c4)CC3)CC2)C(F)(F)F)c1 (stereo not drawn) [Example 2-42, 2-chloro-N,N-dimethyl-4-[4-({1-[3,3,3-trifluoro-2-(3-fluoro-5-methylphenyl)-2-hydroxy-propanoyl]piperidin-4-yl}methyl)piperidin-1-yl]benzamide]",76,7.92,25,–,6.79,–,–,–,–,–
"CN(C)C(=O)c1ccc(N2CCCN(CC3CCN(C(=O)C(O)(c4cccc(Cl)c4)C(F)(F)F)CC3)CC2)cc1Cl (stereo not drawn) [Example 6-2, 2-chloro-4-[4-({1-[2-(3-chlorophenyl)-3,3,3-trifluoro-2-hydroxypropanoyl]piperidin-4-yl}methyl)-1,4-diazepan-1-yl]-N,N-dimethylbenzamide]",98,6.27,14,NO IP,–,–,–,–,–,–
"CN(C)C(=O)c1ccc(N2CCC(CC3CCN(C(=O)[C@](O)(c4cccc(Br)c4)C(F)(F)F)CC3)CC2)cc1Cl [Example 2-83, 4-[4-({1-[(2R)-2-(3-bromo-phenyl)-3,3,3-trifluoro-2-hydroxy-propanoyl]piperidin-4-yl}methyl)piperidin-1-yl]-2-chloro-N,N-dimethyl-benzamide]",68,8.40,26,–,7.08,–,–,–,–,–
"CN(C)C(=O)c1ccc(N2CCC(CC3CCN(C(=O)[C@](O)(c4cccc(OC(F)F)c4)C(F)(F)F)CC3)CC2)nc1Cl [Example 7-115, 2-chloro-6-{4-[(1-{(2R)-2-[3-(difluoromethoxy)phenyl]-3,3,3-trifluoro-2-hydroxypropanoyl}piperidin-4-yl)methyl]piperidin-1-yl}-N,N-dimethylpyridine-3-carboxamide]",60,8.30,17,–,6.60,–,–,–,–,–
"COc1cccc([C@@](O)(C(=O)N2CCC(CC3CCN(c4ccc(C(=O)N(C)C)c(Cl)c4)CC3)CC2)C2CC2)c1 [Example 2-114, 2-chloro-4-[4-({1-[(2R)-2-cyclopropyl-2-hydroxy-2-(3-methoxy-phenyl)acetyl]piperidin-4-yl}methyl)piperidin-1-yl]-N,N-dimethyl-benzamide]",–,–,–,NO IP,–,266,19,6,–,–
"CCOc1cccc([C@@](O)(C(=O)N2CCC(CC3CCN(c4ccc(C(=O)N(C)C)c(C5CC5)n4)CC3)CC2)C(F)(F)F)c1 [Example 7-12, 2-cyclopropyl-6-[4-({1-[(2R)-2-(3-ethoxyphenyl)-3,3,3-trifluoro-2-hydroxypropanoyl]piperidin-4-yl}methyl)piperidin-1-yl]-N,N-dimethylpyridine-3-carboxamide]",71,7.62,6,NO IP,–,–,–,–,–,–
"CN(C)C(=O)c1ccc(N2CCC(CC3CN(C(=O)[C@](O)(c4ccccc4)C(F)(F)F)C3)CC2)cc1Cl [Example 2-58, 2-chloro-N,N-dimethyl-4-[4-({1-[(2R)-3,3,3-trifluoro-2-hydroxy-2-phenylpropanoyl]azetidin-3-yl}methyl)piperidin-1-yl]benzamide]",88,7.80,38,–,6.02,–,–,–,–,–
"CN(C)C(=O)c1ccc(N2CCC(CC3CCN(C(=O)C(O)(c4ccccc4)C4CCC4)CC3)CC2)nc1Cl (stereo not drawn) [Example 7-97, 2-chloro-6-[4-({1-[cyclobutyl(hydroxy)phenylacetyl]piperidin-4-yl}methyl)piperidin-1-yl]-N,N-dimethylpyridine-3-carboxamide]",–,–,–,–,–,40,98,38,1180,–
"CN(C)C(=O)c1ccc(N2CCC(CC3CCN(C(=O)[C@](O)(c4cccc(OCC(F)(F)F)c4)C(F)(F)F)CC3)CC2)cc1Cl [Example 2-97, 2-chloro-N,N-dimethyl-4-{4-[(1-{(2R)-3,3,3-trifluoro-2-hydroxy-2-[3-(2,2,2-trifluoroethoxy)phenyl]propanoyl}piperidin-4-yl)methyl]piperidin-1-yl}benzamide]",20,7.40,0,NO IP,–,–,–,–,–,–
"CN(C)C(=O)c1ccc(N2CCC(CC3CCN(C(=O)[C@](O)(c4cccc(F)c4)C(F)(F)F)CC3)CC2)cc1Cl [Example 2-84, 2-chloro-N,N-dimethyl-4-[4-({1-[(2R)-3,3,3-trifluoro-2-(3-fluoro-phenyl)-2-hydroxy-propanoyl]piperidin-4-yl}methyl)piperidin-1-yl]benzamide]",83,8.15,38,–,6.85,–,–,–,–,–
"CN(C)C(=O)c1ccc(N2CCC(CC3CCN(C(=O)[C@](O)(c4cc(F)cc(F)c4)C(F)(F)F)CC3)CC2)cc1Cl [Example 2-94, 2-chloro-4-[4-({1-[(2R)-2-(3,5-difluoro-phenyl)-3,3,3-trifluoro-2-hydroxy-propanoyl]piperidin-4-yl}methyl)piperidin-1-yl]-N,N-dimethyl-benzamide]",89,8.40,48,–,7.30,–,–,–,–,–
"O=C(c1ccc(N2CCC(CC3CCN(C(=O)[C@](O)(c4ccccc4)C(F)(F)F)CC3)CC2)cc1Cl)N1CCC1 [Example 4-1, (R)-1-(4-((1-(4-(azetidine-1-carbonyl)-3-chlorophenyl)piperidin-4-yl)methyl)piperidin-1-yl)-3,3,3-trifluoro-2-hydroxy-2-phenylpropan-1-one]",72,7.28,31,–,6.26,–,–,–,–,–
"CNC(=O)c1ccc(N2CCC(CC3CCN(C(=O)C(O)(c4cccc(Cl)c4)C(F)(F)F)CC3)CC2)cc1Cl (stereo not drawn) [Example 7-129, 2-chloro-4-[4-({1-[2-(3-chlorophenyl)-3,3,3-trifluoro-2-hydroxypropanoyl]piperidin-4-yl}methyl)piperidin-1-yl]-N-methylbenzamide]",–,7.80,–,NO IP,–,–,–,–,–,90
"Cc1cc(N2CCC(CC3CCN(C(=O)C(O)(c4cccc(Cl)c4)C(F)(F)F)CC3)CC2)ncc1C(=O)N(C)C (stereo not drawn) [Example 7-4, 6-[4-({1-[2-(3-chlorophenyl)-3,3,3-trifluoro-2-hydroxypropanoyl]piperidin-4-yl}methyl)piperidin-1-yl]-N,N,4-trimethylpyridine-3-carboxamide]",–,7.28,–,–,5.88,–,63,19,–,–
"Cc1ccccc1C1(C(=O)N2CCC(CC3CCN(c4ccc(C(=O)N(C)C)c(Cl)n4)CC3)CC2)CCC1 [Example 7-56, 2-chloro-N,N-dimethyl-6-{4-[(1-{[1-(2-methylphenyl)cyclobutyl]carbonyl}piperidin-4-yl)methyl]piperidin-1-yl}pyridine-3-carboxamide]",114,7.70,37,–,6.37,–,–,–,–,–
